In patent US20210163453A1, “DERIVATIVES OF PAPAVERINE THAT ARE EFFECTIVE HYPOXIC TUMOR RADIOSENSITIZERS” (Ohio State Innovation Foundation, priority 2018, published 2021):

How the values were obtained:
MP2 ODDluc tumors = experiment: ODD-luciferase in vivo oxygen reporter (bioluminescence imaging); set-up: species or system mice; details: MP2 ODDluc tumors, 2 and 6 hours after drug
Excerpt: FIGS. 14A-14E summarize results obtained using ODD-luciferase as an in vivo oxygen reporter. […] (n=3-4, P<0.05).
Use of ODD-luciferase as an in vivo oxygen reporter. We have fused the oxygen dependent degradation domain (ODD) of the HIF1a protein to the luciferase reporter protein. This fusion protein is expressed in tumor cells and is stable and reports well in hypoxia, but is destroyed by cellular machinery when cells are well oxygenated (FIG. 14A). These cells were used to grow tumors in immune-deficient mice and the animals were exposed either 95% oxygen/5% CO2 (carbogen) or medical air and the tumor bioluminescence imaged by IVIS 30 minutes post injection. Increasing oxygen breathing decreases reporter signal (FIG. 14B). These animals were then treated with either papaverine or vehicle (FIG. 14C) or SMV32 or vehicle (FIG. 14E).

A549 cells [1] = experiment: Seahorse OCR in A549 cells (dose response, IC50, washout); assay type: cell-based, Human
EO771 tumors [2] = experiment: Pimonidazole staining, hypoxic fraction of EO771 tumors; assay type: in vivo, mice
Protocol: (§1) P values were calculated against thigh muscle with two-tailed two-sample t test. FIG. 3B-3C show normalized tissue oxygenation in EO771 (b) or A549 (c) tumor-bearing mice after injection of 2 mg/kg PPV or vehicle saline (readings taken every minute, and curve is average of 5 traces). P value was analyzed by linear mixed model with autoregressive correlation structure at T=30-40 minutes. […] Values are mean area covered by pimonidazole-positive cells evaluated from 20 images per animal+−SEM. P value was calculated with two-tailed two-sample t test. […] Curves represent mean tumor volumes+−SEM. P values were calculated against XRT with two-tailed two-sample t test.
(§2) Bar graphs represent the mean area covered by pimonidazole-positive cells evaluated from 20 images per animal+−standard error of the mean. P value was calculated against control with two-tailed two-sample t test. […] Mean volumes+−SEM. P values were calculated against XRT with two-tailed two-sample t test. *P<0.05; **P<0.01; ***P<0.001; ****P<0.0001; n.s., not significant.
Pimonidazole staining. […] […] […] The hypoxic fraction of each tumor was quantified by thresholding signal at 50% of the maximum signal on control sections. Area covered by pimonidazole-positive cells was evaluated from 20 images per animal and averaged. Error bars represent the standard deviation.

PDE10A = molecular target: T1, PDE10A (Homo sapiens, UniProt Q9Y233); experiment: PDE10A enzymatic assay (PDE10A activity assay kit, BPS Bioscience); assay type: biochemical
T1 construct: purchased BPS Bioscience
Protocol: FIGS. 7A-7D show OCR and cellular toxicity data. […] Bars represent mean OCR and PDE10 inhibitory activities from at least 5 (OCR) or 3 (PDE) replicates. All experiments were repeated at least twice. […] Values are mean+−SEM. […]
The structure activity relationship of PPV relative to two assays was assessed: inhibition of cellular OCR by Seahorse, and inhibition of PDE10A by purified enzyme activity in multiwell plate (PDE10A activity assay kit, BPS Bioscience). […] These lead compounds were synthesized from commercial precursors and purified on silica gel column.

EO771 tumors [3] = experiment: Tumor growth delay of EO771 tumors with radiation (XRT); assay type: in vivo, mice; details: for effect of drug before radiation on tumor growth delay (words): orthotopic EO771, 2 mg/kg 30-40 minutes before 5 Gy; for enhancement of tumor growth delay over XRT alone: orthotopic EO771, 2 mg/kg before 5 Gy
Protocol: as §1
FIGS. 4A-4G show tumor growth before and after radiosensitization with PPV. FIG. 4A-4B show in vitro radiation survival assessment of A549 cell line treated with 10 μm PPV in normoxia (FIG. 4A) and anoxia (FIG. 4B). […] Values represent averaged colony counts+−standard deviation. […] Values are mean tumor volumes+−SEM. […] Values are mean tumor volumes+−SEM. FIG. 4E-4F show tumor growth delay. When tumors reached 4-fold volume increase, groups receiving no treatment or PPV only (FIG. 4E); and XRT only or PPV followed by XRT (FIG. 4F), tumor weights were compared. Values are mean tumor weights+−SEM (n=8). P values were calculated with two-tailed two-sample t test. FIG. 4G are related to FIG. 4E-4F tumor growth delay. Representative images of orthotopic EO771 tumors harvested on day 11 after treatment with XRT (top) or 2 mg/kg PPV followed by XRT (bottom). *P<0.05; **P<0.01; ***P<0.001; ****P<0.0001; n.s., not significant.
as §2
Tumor Growth kinetics. 2×10^6 EO771 or 5×10^6 A549 cells were injected s.c. into the flanks of 6-week old female immunocompetent C57/B6 (EO771) or immunocompromised nu/nu (A549) mice. Caliper measurements of opposing diameter were used to calculate the tumor volumes. Upon reaching […], the tumors were visualized by cone beam CT and treatment plans calculated using SARRP software. X-rays were delivered with a single beam delivering 5 Gy using the Small Animal Research Radiation Platform (SARRP, Xstrahl). Tumor volumes were measured until the post treatment volume increased 3-fold. Error bars represent standard deviation.
Both models of transplanted tumors that were used for the oxygenation experiments of papaverine's effect on radiation response in vivo were investigated. The murine breast cancer line EO771 that is syngeneic with the BL6 strain of mice was used and transplanted it orthotopically into the mammary fat pad of immune-competent mice. Also used was the human A549 lung adenocarcinoma line that was transplanted into the flank of immune-deficient mice. The breast cancers grew to approximately 150 mm^3 and were then randomized to receive either no treatment, a single dose of either 5 Gy, or papaverine at 2 mg/kg followed 30-40 minutes later by 5 Gy.

A549 cells [4] = experiment: Trypan blue cell viability of A549 cells in normoxia and hypoxia; assay type: cell-based, Human; details: 100 μM papaverine, 72 h
Protocol: FIGS. 2A-2D are OCR measurements and cell viability assessments. FIG. 2A-2B are representative of OCR measurement in competition assay between PPV and complex I inhibitors piericidin A (FIG. 2A) and capsaicin (FIG. 2B). Values represent the means+−SD. FIGS. 2C-2D show trypan blue cell viability assessment (of n=3) of A549 cells treated with 100 μM papaverine or 1 μM rotenone in normoxia (FIG. 2C) and hypoxia (FIG. 2D) (T=72 h). Bar charts represent mean of viable cells in duplicates+−standard deviation.
Experimental: Cell lines. All cell lines were purchased from the American Type Culture Collection (ATCC) and grown DMEM (Corning) supplemented with 10% FBS (Seradigm) and 1% Penicillin/Streptomycin (Fisher Bioreagents) at 37° C. in 5% CO2. Cells were treated with inhibitors papaverine hydrochloride (Sigma-Aldrich), rotenone (Sigma-Aldrich), piericidin A (Santa Cruz), capsaicin (Sigma-Aldrich), antimycin A (Sigma-Aldrich) and succinic acid disodium salt (Sigma-Aldrich). Cell viability was assessed by trypan blue exclusion.

T1 sequence (Q9Y233 267-1055): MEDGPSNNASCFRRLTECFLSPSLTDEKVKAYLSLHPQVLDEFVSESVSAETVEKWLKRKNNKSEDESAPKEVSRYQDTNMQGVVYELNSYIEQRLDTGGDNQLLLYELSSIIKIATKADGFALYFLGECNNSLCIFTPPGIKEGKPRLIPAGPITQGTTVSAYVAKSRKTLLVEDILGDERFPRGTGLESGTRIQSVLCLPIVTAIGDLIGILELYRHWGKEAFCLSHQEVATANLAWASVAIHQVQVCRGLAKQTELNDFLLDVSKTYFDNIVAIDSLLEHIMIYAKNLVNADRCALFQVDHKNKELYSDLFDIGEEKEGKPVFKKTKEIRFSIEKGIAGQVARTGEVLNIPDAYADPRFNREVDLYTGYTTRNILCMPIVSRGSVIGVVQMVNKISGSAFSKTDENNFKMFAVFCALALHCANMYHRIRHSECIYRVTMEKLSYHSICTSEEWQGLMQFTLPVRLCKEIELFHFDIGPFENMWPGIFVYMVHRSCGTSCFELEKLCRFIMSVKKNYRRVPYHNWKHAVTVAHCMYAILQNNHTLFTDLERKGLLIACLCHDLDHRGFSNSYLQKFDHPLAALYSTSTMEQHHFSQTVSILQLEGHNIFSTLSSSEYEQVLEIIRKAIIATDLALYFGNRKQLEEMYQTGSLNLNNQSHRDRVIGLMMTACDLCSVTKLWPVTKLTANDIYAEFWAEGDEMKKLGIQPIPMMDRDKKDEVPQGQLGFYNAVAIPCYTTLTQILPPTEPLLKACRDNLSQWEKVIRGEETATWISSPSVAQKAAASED

Compound	ODD-luciferase reporter signal (MP2 ODDluc tumors)	IC50 (A549 cells [1]; Homo sapiens, A549 cells by Seahorse, n=5 replicates, read-out: mitochondrial IC50 (OCR IC50))	tumor hypoxia by pimonidazole staining (EO771 tumors [2]; orthotopic EO771, immune-competent mice, 2 mg per kg)	IC20 (PDE10A; PDE10A2 enzymatic assay, n=3 replicates, read-out: PDE IC20 (PDE10A IC20))	Inhibitory activity PDE10A % of PPV (PDE10A; PDE10A inhibition at 1 μM, normalized to PPV)	PDE10 activity compared to PPV (PDE10A; compared to PPV)	growth delay compared to radiation alone (EO771 tumors [3]; heterotopic EO771 flank tumors, nude mice, 2 mg/kg 35 minutes prior to 5 Gy)	time for OCR to return to baseline after drug removal (washout) (A549 cells [1]; 10 μM PPV, media replaced)	dose needed relative to rotenone for similar OCR inhibition (A549 cells [1]; dose response analysis, A549)	cellular toxicity in normoxia or hypoxia in vitro (A549 cells [4])	decrease in the hypoxic fraction of tumors (EO771 tumors [2]; 2 mg/kg PPV for one hour, pimonidazole)	effect of drug before radiation on tumor growth delay (words) (EO771 tumors [3])	effect of drug before radiation on tumor growth delay (words) (EO771 tumors [3]; listed as papaverine)	enhancement of tumor growth delay over XRT alone (EO771 tumors [3])	enhancement of tumor growth delay over XRT alone (EO771 tumors [3]; listed as papaverine)	effect of single dose of drug alone on tumor growth (EO771 tumors [3]; orthotopic EO771, 2 mg/kg, no XRT)
COc1cc2ccnc(Cc3cccc4ccccc34)c2cc1OC [SMV-32]	significant decrease in signal	7.4 µM	decreased tumor hypoxia	12 µM	38.66 % of PPV	40%	activity that is comparable to papaverine	–	–	–	–	–	–	–	–	–
COc1ccc(Cc2nccc3cc(OC)c(OC)cc23)cc1OC [PPV, papaverine]	significant decrease in signal	–	–	–	–	–	–	less than one and one	100 × higher dose than rotenone	no cellular toxicity	72%	significantly adds to tumor growth delay	significantly enhanced the antitumor effects of the radiation	2-4 fold	1.9-2.8 fold	no significant effect
